In general, IC50 refers to the concentration needed to halve the response being measured.

This experiment concerns the target T1, 7-alpha-hydroxycholest-4-en-3-one 12-alpha-hydroxylase (Homo sapiens, UniProt Q9UNU6).
T1 sequence (Q9UNU6 whole entry): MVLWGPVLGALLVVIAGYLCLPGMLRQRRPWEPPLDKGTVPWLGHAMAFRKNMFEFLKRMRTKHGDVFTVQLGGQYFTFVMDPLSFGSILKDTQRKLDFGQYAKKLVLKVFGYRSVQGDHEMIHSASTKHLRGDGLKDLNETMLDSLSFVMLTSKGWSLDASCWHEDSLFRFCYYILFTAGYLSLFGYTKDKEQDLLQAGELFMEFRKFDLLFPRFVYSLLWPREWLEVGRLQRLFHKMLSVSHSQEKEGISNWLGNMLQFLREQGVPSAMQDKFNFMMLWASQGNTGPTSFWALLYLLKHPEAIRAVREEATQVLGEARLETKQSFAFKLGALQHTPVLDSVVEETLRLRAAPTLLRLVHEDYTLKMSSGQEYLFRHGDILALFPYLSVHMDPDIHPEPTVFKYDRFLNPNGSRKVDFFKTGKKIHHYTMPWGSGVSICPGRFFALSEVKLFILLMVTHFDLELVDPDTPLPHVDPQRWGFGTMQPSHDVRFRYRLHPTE
Nature of the experiment: Inhibition of CYP8B1 in human liver microsomes using D7-7alpha-hydroxy-4-cholesten-3-one as substrate preincubated for 20 mins followed by substrate addition in presence of NADPH by UPLC-ESI-MS/MS analysis.

Turning to `Clc1ccc(COC(Cn2ccnc2)c2ccc(Cl)cc2Cl)cc1` (stereo not drawn) [ECONAZOLE], the IC50 is 310 nM.
In the case of `CCC(C)n1ncn(-c2ccc(N3CCN(c4ccc(OC[C@H]5CO[C@](Cn6cncn6)(c6ccc(Cl)cc6Cl)O5)cc4)CC3)cc2)c1=O` (stereo partly drawn) [ITRACONAZOLE], the IC50 was 4700 nM.
With `CC[C@@H]([C@H](C)O)n1ncn(-c2ccc(N3CCN(c4ccc(OC[C@@H]5CO[C@@](Cn6cncn6)(c6ccc(F)cc6F)C5)cc4)CC3)cc2)c1=O` [POSACONAZOLE], the half-maximal inhibitory concentration (IC50) came out at 3800 nM.
As for `CC(=O)N1CCN(c2ccc(OC[C@H]3CO[C@](Cn4ccnc4)(c4ccc(Cl)cc4Cl)O3)cc2)CC1` [KETOCONAZOLE], the 50% inhibitory concentration (IC50) is 2200 nM.
For the compound `CC(C)CCC[C@@H](C)[C@H]1CC[C@H]2[C@@H]3[C@H](O)C[C@@H]4C[C@H](O)CC[C@]4(C)[C@H]3C[C@H](O)[C@]12C`, the half-inhibitory concentration (IC50) was determined as 7600 nM.
Consider `N[C@@H]1C[C@H]1c1ccccc1.N[C@H]1C[C@@H]1c1ccccc1` (racemic) [TRANYLCYPROMINE], for which the IC50 was 7800 nM.
`Clc1ccccc1C(c1ccccc1)(c1ccccc1)n1ccnc1` [CLOTRIMAZOLE]: the concentration for half-maximal inhibition (IC50) was 800 nM.
Consider `Clc1ccc(COC(Cn2ccnc2)c2ccc(Cl)cc2Cl)c(Cl)c1` (stereo not drawn) [MICONAZOLE], for which the 50% inhibitory concentration (IC50) worked out at 1500 nM.

The values are drawn from ChEMBL document CHEMBL4418298, “Cyp8b1 and uses thereof in therapeutic and diagnostic methods” (2014).
